Experimental data as given in ChEMBL document CHEMBL3885861, “Open TG-GATES”.

Organism: Rattus norvegicus
Test: Open TG-GATES - Regimen: Single
Format: toxicity, organism-based, Sprague-Dawley
Parameters: regimen Single, gender Male, age 6 weeks
Settings: in vivo, po, route gavage; for APTT / Bas / Eos / Fbg / Hb / Ht / Lym / MCH / MCHC / MCV / Mono / Neu / PT / Plat / RBC / Ret / WBC: tissue Blood; for KIDNEY_L / KIDNEY_R / KIDNEY_TOTAL: tissue Kidney; for LIVER: tissue Liver
[1] = 0 mg/kg, 24 h, tissue Plasma, dose level Control
[2] = 300 mg/kg, 3 h, tissue Plasma, dose level Low
[3] = 300 mg/kg, 6 h, tissue Plasma, dose level Low

Work on `O=C(O)c1ccccc1Nc1ccccc1` [FENAMIC ACID] yielded an RALB [1] of 2.7 g/dL, a TBIL [1] of 0.034 mg/dL and a TC [1] of 77.6 mg/dL. For the same molecule, the TG [1] was 82.6 mg/dL, the TP [1] was 5.6 g/dL and the gamma-GTP [1] was 1 IU/L. The TERMINAL_BW (300 mg/kg, 3 h, dose level Low) was 209.1 g, the APTT (300 mg/kg, 3 h, dose level Low) was 16.8 s and the Bas (300 mg/kg, 3 h, dose level Low) was 0.8%. For the same molecule, the Eos (300 mg/kg, 3 h, dose level Low) was 0.8%, the Fbg (300 mg/kg, 3 h, dose level Low) was 249.8 mg/dL and the Hb (300 mg/kg, 3 h, dose level Low) was 13.2 g/dL. For the same molecule, the Ht (300 mg/kg, 3 h, dose level Low) was 40%, the Lym (300 mg/kg, 3 h, dose level Low) was 79.8% and the MCH (300 mg/kg, 3 h, dose level Low) was 20.5 pg. It also gave an MCHC (300 mg/kg, 3 h, dose level Low) of 33%, an MCV (300 mg/kg, 3 h, dose level Low) of 62.3 fL and a Mono (300 mg/kg, 3 h, dose level Low) of 2.2%. It also gave a Neu (300 mg/kg, 3 h, dose level Low) of 16.2%, a PT (300 mg/kg, 3 h, dose level Low) of 14.3 s and a Plat (300 mg/kg, 3 h, dose level Low) of 113.6 x10_4/uL. It also gave an RBC (300 mg/kg, 3 h, dose level Low) of 642.2 x10_4/ul, a Ret (300 mg/kg, 3 h, dose level Low) of 8.8% and a WBC (300 mg/kg, 3 h, dose level Low) of 95.7 x10_2/uL. For the same molecule, the KIDNEY_L (300 mg/kg, 3 h, dose level Low) was 1 g, the KIDNEY_R (300 mg/kg, 3 h, dose level Low) was 0.9 g and the KIDNEY_TOTAL (300 mg/kg, 3 h, dose level Low) was 1.9 g. The LIVER (300 mg/kg, 3 h, dose level Low) was 8.2 g, the A/G [2] was 0.9 and the ALP [2] was 1661.4 IU/L. For the same molecule, the ALT [2] was 38.2 IU/L, the AST [2] was 73.4 IU/L and the BUN [2] was 12.4 mg/dL. For the same molecule, the CRE [2] was 0.2 mg/dL, the Ca [2] was 11.1 mg/dL and the Cl [2] was 107.2 meq/L. The GLC [2] was 187.4 mg/dL, the IP [2] was 9.6 mg/dL and the K [2] was 4.4 meq/L. The LDH [2] was 78.4 IU/L, the Na [2] was 144.4 meq/L and the PL [2] was 124.6 mg/dL. The RALB [2] was 2.5 g/dL, the TC [2] was 67.4 mg/dL and the TG [2] was 93.4 mg/dL. The TP [2] was 5.4 g/dL, the gamma-GTP [2] was 1 IU/L and the TERMINAL_BW (300 mg/kg, 6 h, dose level Low) was 201.5 g. The APTT (300 mg/kg, 6 h, dose level Low) was 16.7 s, the Bas (300 mg/kg, 6 h, dose level Low) was 0.6% and the Eos (300 mg/kg, 6 h, dose level Low) was 0.8%. For the same molecule, the Fbg (300 mg/kg, 6 h, dose level Low) was 248.8 mg/dL, the Hb (300 mg/kg, 6 h, dose level Low) was 13.5 g/dL and the Ht (300 mg/kg, 6 h, dose level Low) was 40.6%. It also gave a Lym (300 mg/kg, 6 h, dose level Low) of 74.6%, an MCH (300 mg/kg, 6 h, dose level Low) of 20.9 pg and an MCHC (300 mg/kg, 6 h, dose level Low) of 33.3%. For the same molecule, the MCV (300 mg/kg, 6 h, dose level Low) was 62.9 fL, the Mono (300 mg/kg, 6 h, dose level Low) was 2.4% and the Neu (300 mg/kg, 6 h, dose level Low) was 21.4%. For the same molecule, the PT (300 mg/kg, 6 h, dose level Low) was 14.5 s, the Plat (300 mg/kg, 6 h, dose level Low) was 114.4 x10_4/uL and the RBC (300 mg/kg, 6 h, dose level Low) was 645.8 x10_4/ul. It also gave a Ret (300 mg/kg, 6 h, dose level Low) of 8%, a WBC (300 mg/kg, 6 h, dose level Low) of 96.1 x10_2/uL and a KIDNEY_L (300 mg/kg, 6 h, dose level Low) of 0.9 g. It also gave a KIDNEY_R (300 mg/kg, 6 h, dose level Low) of 0.9 g, a KIDNEY_TOTAL (300 mg/kg, 6 h, dose level Low) of 1.8 g and an LIVER (300 mg/kg, 6 h, dose level Low) of 7.3 g. For the same molecule, the A/G [3] was 0.9, the ALP [3] was 1342.6 IU/L and the ALT [3] was 38.4 IU/L. For the same molecule, the AST [3] was 73 IU/L, the BUN [3] was 8.8 mg/dL and the CRE [3] was 0.2 mg/dL. For the same molecule, the Ca [3] was 10.7 mg/dL, the Cl [3] was 107.4 meq/L and the GLC [3] was 152.8 mg/dL. The IP [3] was 9.9 mg/dL, the K [3] was 3.9 meq/L and the LDH [3] was 66.6 IU/L. It also gave a Na [3] of 144.2 meq/L and a PL [3] of 116.8 mg/dL.
